Reference: patent US20230094176A1, “COMPOUNDS AND METHODS FOR IMPROVING IMPAIRED ENDOGENOUS FIBRINOLYSIS USING HISTONE DEACETYLASE INHIBITORS” (Cereno Scientific AB, priority 2011, published 2023)
Where two headings read alike, the source gives them in different places.

Tests used:
[1] = system: TNF-a suppressed t-PA mRNA in HUVECs; experiment: TNF-alpha suppression of t-PA mRNA in HUVEC: anti-inflammatory substances versus Givinostat; type: cell-based, human; details: HUVEC, TNF-a 1 h then substance; ASA 1 mM, IBU 1 mM
Experimental: HUVECs were treated with TNF-alpha (TNF-a) for 1 h and then optimal concentrations of the anti.inflammatory substances acetylsalicylic acid (ASA, 1 mM) and ibuprofen (IBU, 1 mM) was added. Givinostat was also added to the cells for comparison. Cells were harvested and t-PA mRNA levels analysed according to example 1.

[2] = cited from earlier work; for Cmax / Cmax (ng/ml): maximum plasma concentration when the MTD is administered to humans
[3] = system: t-PA mRNA in HUVECs; experiment: C100: dose giving a 100% increase of t-PA mRNA in HUVEC (24 h); type: cell-based, human
Experimental: HUVECs are treated with different concentrations of first generation hydroxamates (TSA), second generation hydroxamates (Givinostat, Vorinostat, Belinostat, Panobinostat, SB939, PCI24781), benzamides (Mocetinostat, Entinostat) or short chain fatty acids (SCFA, Butyrate, Phenylbutyrate) for 24 h and t-PA mRNA was measured. The doses giving a 100% increase of t-PA mRNA (C100) was determined and compared to the maximum plasma concentration (Cmax) achieved when the maximum tolerated dose (MTD) of each substance is administered to humans, by dividing the C100 with the Cmax. […] In the table below the values for MTD and Cmax are from the following references (mentioned in the same order as in the table): Steele, N. L. et al Cancer Chemother Pharmacol 67(6):1273-9 (2011), Kelly, K. K. et al J Clin Oncol 23:3923-3931 (2005), Furlan, A. et al Mol Med 17(5-6) 353-362 (2011), Fukutomi, A. et al Invest New Drugs 2011 Apr. 12, Yong, W. P. et al Ann Oncol 22(11) 2516-22 (2011), Garcia-Manero, G. et al. Blood 112: 981-989 (2008), Ryan, Q. C. et al J Clin Oncol 23(17): 3912-3922 (2005), Edelman, M. J. et al Cancer Chemother Pharmacol 51: 439-444, http://www.drugs.com/pro/buphenyl.html *Butyrate was administered in the prodrug form tributyrin.

[4] = system: t-PA mRNA expression in human umbilical vein endothelial cells (HUVECs); experiment: In vitro dose response: t-PA mRNA (and protein) expression in HUVEC after 24 h; type: cell-based
Experimental: Human umbilical vein endothelial cells (HUVECs) were prepared by collagenase treatment of fresh umbilical cords (Jaffe, E. A., et al. J Clin Invest 52, 2745-2756 (1973)) obtained from the maternity ward of the Sahlgrenska University hospital, Gotheburg, Sweden. Cells were cultured in EGM-2 medium (Lonza, Basel, Switzerland) and all experiments were performed in passage 1 of subcultivation. Confluent HUVECs were exposed to 10 nM-10 μM of Vorinostat (Selleck Chemicals, Houston, Tex., USA) in complete medium for 24 h. After 24 h, cells and conditioned media were harvested.
Total RNA was prepared using RNeasy Mini RNA kit (Qiagen, Hilden, Germany) and genomic DNA was removed using RNase-free DNase I set (Qiagen). Levels of t-PA mRNA were analyzed with real-time RT-PCR, performed on an Applied Biosystems 7500 Fast Real-Time PCR System using cDNA and Taqman reagents obtained from Applied Biosystems (Foster City, Calif., USA). Hypoxanthine phosphoribosyl transferase (HPRT, Assay number Hs99999909_m1, Applied Biosystems) was used as endogenous internal standard.
Endothelial cells in culture are known to constitutively secrete the majority of synthesized t-PA making conditioned media a suitable source for quantification of t-PA protein. Conditioned medium from cell cultures was collected, centrifuged (10 000×g, 10 min, 4° C.) to remove cell debris, transferred to fresh tubes and stored at −70° C. Concentrations of t-PA antigen in conditioned media were determined using the commercially available TriniLize t-PA antigen ELISA (Trinity Biotech, Bray, Ireland) according to manufacturer's protocol.

[5] = system: t-PA production in endothelial cells; details: Arts et al 1995; cited from earlier work

Compound: CC(=O)Oc1ccccc1C(=O)O [ASA, acetylsalicylic acid]
- effect on TNF-a mediated suppression of t-PA expression [1]: not counteracted

Compound: CCCC(=O)O [Butyrate]
- MTD ([2]; humans, literature, butyrate administered in the prodrug form tributyrin): 200 mg/kg t.i.d
- Cmax ([2]; butyrate as prodrug tributyrin): 100 µM
- C100 tPA (μM) [3]: 100 µM

Compound: Nc1ccccc1NC(=O)c1ccc(CNC(=O)OCc2cccnc2)cc1 [Entinostat]
- Cmax [2]: 0.12 µM
- Cmax (ng/ml) [2]: 45 ng/mL
- C100 tPA [3]: 0.3 µM

Compound: CC(C)Cc1ccc(C(C)C(=O)O)cc1 (centres unmarked) [IBU, ibuprofen]
- effect on TNF-a mediated suppression of t-PA expression [1]: not counteracted

Compound: CCCCc1nc2cc(/C=C/C(=O)NO)ccc2n1CCN(CC)CC [SB939, (2E)-3-{2-butyl-1-[2-(diethylamino)ethyl]-1H-benzimidazol-5-yl}-N-hydroxyacrylamide]
- MTD ([2]; humans, literature): 80 mg
- Cmax [2]: 1.1 µM
- Cmax (ng/ml) [2]: ~400 ng/mL
- MTD ([2]; once daily, oncology treatment or trials): 60 mg once daily
- concentration at which a significant increase of t-PA mRNA levels was seen [4]: 30 nM
- concentration of maximal effect on t-PA expression [4]: around 1 μM
- increase of t-PA expression at maximal effect [4]: approximately 10 times
- C100 tPA [3]: 0.05 µM

Compound: CC(/C=C/C(=O)NO)=C\[C@@H](C)C(=O)c1ccc(N(C)C)cc1 [Trichostatin A, trichostatin A]
- t-PA production in endothelial cells [5]: increased

Compound: CC(=O)Oc1ccccc1C(=O)O [aspirin]
- effect on TNF-a mediated suppression of t-PA expression [1]: unable to reverse

Compound: CC(C)Cc1ccc(C(C)C(=O)O)cc1 (centres unmarked) [ibuprofen]
- effect on TNF-a mediated suppression of t-PA expression [1]: unable to reverse

Compound: Phenylbutyrate
- MTD ([2]; humans, literature): 5000 mg
- Cmax ([2]; butyrate as prodrug tributyrin): 1100 µM
- Cmax (ng/ml) [2]: 218 000 ng/ml
- C100 tPA (μM) [3]: 1300 µM
